From ChEMBL document CHEMBL5518230, “Identification of a Novel Selective CDK9 Inhibitor for the Treatment of CRC: Design, Synthesis, and Biological Activity Evaluation” (J Med Chem, 2024) come the findings set out here.

The source made the active and inactive calls. No cut-off for these calls is given here.

The target of one assay is CDK9/cyclin T1 (Homo sapiens, UniProt P50750). Kind of assay: Inhibition of CDK9/Cyclin T1 (unknown origin) using PDKtide substrate incubated for 60 mins by ADP-Glo kinase assay. The class given is protein-complex assay.
Sequence of CDK9/cyclin T1 (O60563 whole entry): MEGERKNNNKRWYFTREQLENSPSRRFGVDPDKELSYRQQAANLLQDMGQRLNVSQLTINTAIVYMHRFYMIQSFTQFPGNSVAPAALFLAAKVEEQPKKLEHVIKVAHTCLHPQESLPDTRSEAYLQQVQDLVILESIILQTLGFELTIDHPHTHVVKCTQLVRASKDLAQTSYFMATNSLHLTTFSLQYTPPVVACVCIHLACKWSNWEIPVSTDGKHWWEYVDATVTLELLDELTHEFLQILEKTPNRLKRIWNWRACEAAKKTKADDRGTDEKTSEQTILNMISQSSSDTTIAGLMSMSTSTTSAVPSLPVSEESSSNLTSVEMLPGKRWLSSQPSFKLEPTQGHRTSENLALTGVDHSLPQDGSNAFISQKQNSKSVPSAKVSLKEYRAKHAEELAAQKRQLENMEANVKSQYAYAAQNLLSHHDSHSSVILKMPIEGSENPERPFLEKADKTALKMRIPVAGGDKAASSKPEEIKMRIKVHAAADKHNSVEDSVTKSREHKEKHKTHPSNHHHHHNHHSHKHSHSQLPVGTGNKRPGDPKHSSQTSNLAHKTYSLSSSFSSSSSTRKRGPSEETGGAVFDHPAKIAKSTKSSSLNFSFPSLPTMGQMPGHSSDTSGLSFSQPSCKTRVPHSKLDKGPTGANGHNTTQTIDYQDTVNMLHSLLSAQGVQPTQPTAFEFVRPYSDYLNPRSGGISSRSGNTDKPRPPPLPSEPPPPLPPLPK
Sequence of CDK9/cyclin T1 (P50750 whole entry): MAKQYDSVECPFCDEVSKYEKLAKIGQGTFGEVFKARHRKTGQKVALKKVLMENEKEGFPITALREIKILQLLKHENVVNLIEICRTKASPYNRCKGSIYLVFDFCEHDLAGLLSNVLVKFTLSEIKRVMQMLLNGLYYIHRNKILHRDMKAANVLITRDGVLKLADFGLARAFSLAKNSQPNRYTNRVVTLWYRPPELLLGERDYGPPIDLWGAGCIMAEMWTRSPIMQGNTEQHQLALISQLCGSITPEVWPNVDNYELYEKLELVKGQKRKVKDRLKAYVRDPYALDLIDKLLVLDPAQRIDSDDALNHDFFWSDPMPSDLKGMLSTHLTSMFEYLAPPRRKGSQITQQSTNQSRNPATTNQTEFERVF
The test system of another assay is HCT-116. Kind of assay: Growth inhibition of human HCT-116 cells incubated for 48 hrs by CCK-8 assay. The class given is functional. On the technique in general: Formazan colour is commonly taken as a measure of viable cells.
The subject of a further assay is HT-29. The assay can be described thus: Growth inhibition of human HT-29 cells incubated for 48 hrs by CCK-8 assay. The class given is functional.
The species entered for another assay is Homo sapiens. Kind of assay: Inhibition of CDK1/Cyclin A2 (unknown origin) at 100 nM.
Assay [1] has as its target CDK1/Cyclin E (Homo sapiens) (UniProt P06493+P24864). Kind of assay: Inhibition of CDK1/Cyclin E1 (unknown origin) at 100 nM. The class given is protein-complex assay.
The target of assay [2] is CDK2/Cyclin A2 (Homo sapiens) (UniProt P24941+P20248). Kind of assay: Inhibition of CDK2/Cyclin A2 (unknown origin) at 100 nM. The class given is protein-complex assay.
Assay [3] addresses Cyclin-dependent kinase 2/cyclin E1 (Homo sapiens) (UniProt P24864+P24941). The assay can be described thus: Inhibition of CDK2/Cyclin E1 (unknown origin) at 100 nM. The class given is protein-complex assay.

Sequence of CDK1/Cyclin E (Homo sapiens) (P06493 whole entry, looked up): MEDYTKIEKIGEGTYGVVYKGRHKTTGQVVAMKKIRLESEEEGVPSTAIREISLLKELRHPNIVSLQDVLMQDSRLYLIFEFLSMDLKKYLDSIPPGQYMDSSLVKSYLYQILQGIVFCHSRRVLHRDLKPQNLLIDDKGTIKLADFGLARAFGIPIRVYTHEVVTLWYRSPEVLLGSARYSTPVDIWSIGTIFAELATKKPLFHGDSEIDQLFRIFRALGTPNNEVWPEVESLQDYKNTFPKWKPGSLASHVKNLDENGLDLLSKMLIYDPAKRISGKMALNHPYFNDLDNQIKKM
Sequence of CDK1/Cyclin E (Homo sapiens) (P24864 whole entry, looked up): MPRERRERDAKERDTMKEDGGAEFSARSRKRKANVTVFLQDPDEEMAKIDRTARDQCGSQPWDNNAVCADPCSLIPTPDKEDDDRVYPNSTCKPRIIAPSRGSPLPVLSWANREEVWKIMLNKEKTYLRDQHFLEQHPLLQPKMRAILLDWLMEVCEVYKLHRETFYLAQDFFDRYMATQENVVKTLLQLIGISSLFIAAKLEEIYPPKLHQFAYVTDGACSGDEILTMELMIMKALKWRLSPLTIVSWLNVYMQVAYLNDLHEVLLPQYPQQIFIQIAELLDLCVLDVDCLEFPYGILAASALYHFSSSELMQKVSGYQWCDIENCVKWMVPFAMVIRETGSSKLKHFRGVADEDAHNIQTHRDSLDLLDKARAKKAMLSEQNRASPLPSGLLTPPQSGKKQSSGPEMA

For `CCN1CCN(C(=O)c2ccc(Nc3cc(-c4ccc5nnn(C(C)C)c5c4)ccn3)nc2)CC1`, the IC50 (commonly the midpoint of a concentration-inhibition curve) on CDK9/cyclin T1 worked out at 3.8 nM. The GI50 (usually the concentration at which growth is held to half of that of the control) worked out at 60 nM with HCT-116 and 50 nM in the assay with HT-29. Besides, the inhibition result (in the assay filed under Homo sapiens; in assay [1]; in assay [2]; in assay [3]) was “Active” throughout.
